Experiments:
[1] = tested on: patients with mild or moderate dementia; assay: Exploratory Phase 2 trial NE3107-TRP-001 (ADAS-Cog 11, GRC, PHQ-9); format: in vivo, human; parameters: key to ADAS-Cog-11 score at 3M: ADAS-Cog11 score 0-70; higher = more severe cognitive impairment; settings: for Patient Global Rating of Change (GRC): Month 3, scale −5 to 5; for ADAS-Cog-11 Change: baseline to 3M, decrease = improvement
Description: An exploratory Phase 2 trial of 17α-ethynylandrost-5-ene-3β,7β,17β-triol (NE3107-TRP-001) in 23 patients with mild (n=17) or moderate dementia (n=6) were conducted. Comparisons between baseline and post-intervention (3 months) were evaluated via multi-modal brain magnetic resonance images (MRIs; primary endpoints), measures of glucose and insulin homeostasis, and neuropsychological testing (secondary endpoints).
The interview results were compared with changes from baseline to Month 3 in cognitive functioning as measured by the ADAS-Cog11, and the patient-completed Global Rating of Change (GRC) at Month 3 in the Phase 2 trial (Table 8).
The ADAS-Cog 11 is a performance-based assessment of cognitive function that includes 11 patient-completed tasks that measure word recall, objective/figure naming, command following, constructional praxis, ideational praxis, orientation, word recognition, test direction recall, spoken language, comprehension, and word-finding difficulty. Scores range from 0-70 where higher scores indicate more severe cognitive impairment (i.e., decreases in score over time indicate improvement in cognition). The GRC is a single item that asks patients to rate changes in their condition, abilities, and overall sense of well-being from the start of the trial. Scores range from −5 (“Very much worse”) to 0 (“Unchanged”) to +5 (“Very much better”).

subjects with dementia = assay: Trial in subjects with dementia (CDR 1-2, MMSE 14-24), Aptus positive and negative; format: in vivo, human
Text: In a trial, the relationship between Clinical Dementia Rating Scale (CDR) and Mini Mental State Exam (MMSE) scores with measures of obesity, including Body Mass Index (BMI), Waist Circumference (WC), and waist-to-hip ratio (W/H) was explored with administration of 17α-ethynylandrost-5-ene-3β,7β,17β-triol. The trial sought to explore the anti-inflammatory and insulin sensitizing activity of 17α-ethynylandrost-5-ene-3β,7β,17β-triol in subjects with dementia, using inclusion criteria of the CDR levels 1-2 and the MMSE scores of 14-24 for inclusion criteria.
In this trial, the correlation between CDR (1-2) and MMSE (14-24) scores and the presence or absence of amyloid by the Aptus test, and also the presence of absence of metabolic inflammation using markers of obesity and metabolic inflammation was explored.
With Aptus data available for 96 subjects that met the criteria for CDR and MMSE, only 35 subjects (36%) met the Aptus criteria. When measures of obesity were examined, BMI was available for 149 subjects. Due to the age-related decrease in muscle mass, only 60 (40%) of the subjects met the CDC criteria (male BMI >40, Female BMI >35) for obesity. These restrictions would severely limit enrollment. […]

Question: Which results are given for C#C[C@]1(O)CC[C@H]2[C@@H]3[C@@H](O)C=C4C[C@@H](O)CC[C@]4(C)[C@H]3CC[C@@]21C [17α-ethynylandrost-5-ene-3β,7β,17β-triol, 17-ethynyl-10R, 13S-dimethyl 2,3,4,7, 8R, 9S, 10, 11, 12, 13, 14S, 15, 16, 17-hexadecahydro-1H-cyclopenta[a]phenanthrene-3R, 7R, 17S-triol]?
Answer: increase in ADAS-Cog 11 score, where not decreased ([1]; all interviewed patients, 3-month follow up, 3.1 to 3.8 points = clinically significant worsening): < 3.1 points; mean PHQ-9 score decrease ([1]; change from baseline): 4.3 points; improvement in depression symptoms (PHQ-9) ([1]; patients with baseline PHQ-9 score ≥5): greatest improvement in depression symptoms; individual PHQ-9 domains (apathy, depressive symptoms, sleep disturbance, fatigue, eating disorders, low self-esteem) ([1]; patients with baseline PHQ-9 score ≥5 compared to all patients): greater improvement, compared to all patients; Global Rating of Change (GRC) ([1]; patients with mild dementia, 3 months): improvements on the Global Rating of Change; ADAS-Cog 11 decrease ([1]; patients with mild dementia, baseline vs 3 months, p=0.0046): 2.6 point; Patient Global Rating of Change (GRC) ([1]; subject N-02-22): −5; ADAS-Cog-11 score at 3M ([1]; subject N-02-22, baseline 5.00): 5.67; ADAS-Cog-11 Change ([1]; subject N-02-22): +0.67; Patient Global Rating of Change (GRC) ([1]; subject N-03-22): 3.5; ADAS-Cog-11 score at 3M ([1]; subject N-03-22, baseline 11.33): 6.00; ADAS-Cog-11 Change ([1]; subject N-03-22): −5.33; Patient Global Rating of Change (GRC) ([1]; subject N-07-22): 1; ADAS-Cog-11 score at 3M ([1]; subject N-07-22, baseline 19.33): 14.67; ADAS-Cog-11 Change ([1]; subject N-07-22): −4.67; Comparison (ADAS-Cog 11/GRC/Interview) ([1]; subject N-10-22): +/−/NC; Patient Global Rating of Change (GRC) ([1]; subject N-10-22): −1; ADAS-Cog-11 score at 3M ([1]; subject N-10-22, baseline 5.00): 2.33; ADAS-Cog-11 Change ([1]; subject N-10-22): −2.67; Comparison (ADAS-Cog 11/GRC/Interview) ([1]; subject N-14-22): +/+/NC; Patient Global Rating of Change (GRC) ([1]; subject N-14-22): 2; ADAS-Cog-11 score at 3M ([1]; subject N-14-22, baseline 14.00): 9.00; ADAS-Cog-11 Change ([1]; subject N-14-22): −5.00; Patient Global Rating of Change (GRC) ([1]; subject N-16-22): 4; ADAS-Cog-11 score at 3M ([1]; subject N-16-22, baseline 21.00): 11.00; ADAS-Cog-11 Change ([1]; subject N-16-22): −10.00; Patient Global Rating of Change (GRC) ([1]; subject N-17-22): 4; ADAS-Cog-11 score at 3M ([1]; subject N-17-22, baseline 6.67): 9.33; ADAS-Cog-11 Change ([1]; subject N-17-22): +2.67; Patient Global Rating of Change (GRC) ([1]; subject N-18-22): 4; ADAS-Cog-11 score at 3M ([1]; subject N-18-22, baseline 10.00): 8.67; ADAS-Cog-11 Change ([1]; subject N-18-22): −1.33; Patient Global Rating of Change (GRC) ([1]; subject N-20-22): 3; ADAS-Cog-11 score at 3M ([1]; subject N-20-22, baseline 4.00): 3.33; ADAS-Cog-11 Change ([1]; subject N-20-22): −0.67; Patient Global Rating of Change (GRC) ([1]; subject N-22-22): 5; ADAS-Cog-11 score at 3M ([1]; subject N-22-22, baseline 27.67): 29.00; ADAS-Cog-11 Change ([1]; subject N-22-22): +1.33; Patient Global Rating of Change (GRC) ([1]; subject N-23-22): 3; ADAS-Cog-11 score at 3M ([1]; subject N-23-22, baseline 9.33): 10.00; ADAS-Cog-11 Change ([1]; subject N-23-22): +0.67; cognition (subjects with dementia): improvements in cognition independent of amyloid beta positivity
